Measurements taken from patent US3985878A, “Anti-inflammatory and antirheumatic compounds and preparation” (priority 1974, dated 1976).
Where “and” joins values, the source holds several entries; their conditions need not be identical. Identical values can stand only once. Counter-ions that a name gives are not always drawn. Like-named read-outs stand apart in the source and are kept apart here.

Key:
[1] = Anti-inflammatory activity, paw test (Domenjoz test); assay type: in vivo, rat; conditions: read-out: ED50 per os, acute anti-inflammatory activity (Domenjoz test)
Protocol: 1a. Anti-inflammatory activity: this activity was measured by the paw test according to Doemnjoz, characterised in its carrying out by the following method:
To young rats of medium weight of 200 g there is administered by hypodermic injection into the right paw an aqueous suspension of carragheen at 1%, 1 hour after the oral administration of the drugs under investigation.
After two hours from the administration of the carragheen, the pawas are disjointed, weighed, and comparison is made between the injected paw, meanwhile swollen, and the paw not interfered with.
This evaluation is expressed both in mg/kg of animal weight and in micromoles/Kg of weight of the animal.

[2] = Analgesic activity, phenylquinone test; assay type: in vivo, rat; conditions: read-out: ED50 per os, analgesic activity (phenylquinone test)
Source text: 2. Analgesic activity: The analgesic activity of an anti-inflammatory can be examined traditionally by the phenylquinone method based on the fact that intra-peritoneal administration to a rat of an irritant substance such as phenylquinone induces vocal reactions ("squirring") in the animal.
From the number of these reactions one judges the pain sensitivity.

fibroblast culture = experiment: Production of mucopolysaccharides from fibroblast culture in vitro; assay type: cell-based; conditions: Fibroblast, 240 h, read-out: Mucopolysaccharide products at the tenth day of incubation; for activity at 10 µg/mL: 10 μg/ml of culture liquid
Protocol: a. Tests in vitro: These tests consist of the cultivation in vitro, i.e., outside the organism, of tissue of the same embriological origin in relation to the osteoarticular. Upon the growth of this tissue there is then measured the activities of the various drugs. The units of measurement of these activities is the production of glucosaminoglicanes (mucopolysaccharides measured by the turbidimetric method).
The compounds which form the subject of this invention were evaluated according to this test and compared with known anti-inflammatories.

[3] = Pellets-induced granuloma test (cotton pellets); assay type: in vivo, rat; conditions: read-out: ED50 per os, acute anti-inflammatory activity (granuloma test)
Protocol: 1b. Pellets-induced granuloma test:
Another important test for the evaluation of an anti-inflammatory is that of cotton pellets. This consists of planting a sterile cotton pellet under the rat's back skin.
This pellet is left in situ for a week while the animals are treated daily with various doses of the drug being examined. Evaluation is effected by weighing the pellets taken at the given time and dried, comparing the weight of those of the treated animals with the checks.

[4] = Osteolathyrism in the rabbit (aminoacetonitrile); assay type: in vivo; conditions: for Deformed gait of back legs / Deformed gait of front legs / General Condition of Animal / Loss of fur / Loss of weight / Ptosis of auricular pavilion: score 0 (no damage) to 4 (maximum damage), 25 days
Protocol: B. Tests in vivo: Osteolathyrism in the rabbit.
Osteolathrism consists of inducing into young rabbits a dystrophy of the bone joint system, administering every day aminoacetonitrile by i.p. means, in the quantity of 100 mg/kg of body weight. With this treatment, in about 30 days, the following changes are shown in the rabbit:
Loss of weight (related to the checks physiologically treated), ptosis of the auricular pavilion, loss of fur, deformation of the front and rear limbs, deterioration of the general condition.
All this takes place because the aminoacetonitrile is a collagen tissue poison which changes the biochemical composition of the joint cartilages and the bones.
An evaluation of the therapeutic activity can be made either by biochemical evaluation, i.e. by measuring the quantity of aminosugars in these tissues, or by considering only the general symptoms, which are proportional to the diminution of the aminosugars.
In Table 5 this latter evaluation is reported, in which every symptom was evaluated by allotting it a number from 0 to 4, 4 indicating the maximum amount of damage and 0 indicating no damage.
On Table 5 there are given the results of treatment evaluated on the 25th day, comparing the groups treated only with a physiological solution, only with aminoacetonitrile, with aminoacetonitrile and CR 604, with aminoacetonitrile and Indometacin in the prescribed doses.
Each group consisted of 8 animals.

[5] = Irritant and ulceroid (gastrolesive) activity on the gastric mucosa; conditions: in vivo, rat
Protocol: 4. Irritant and ulceroid activity on the gastric mucosa
The experimental evaluation of this activity was made on rats, by the method here reported:
The compound is administered orally to rats which have fasted for 12 hours, the animals being killed 4 hours after the administration.
Regarded as positive, i.e. with stomach damage, are those animals which have at least one haemorrhage point on the stomach wall.
By ED50 there is meant that dose of the drug which can […] in 50% of the animals treated, the formation of these haemorrhages.
In Table 6 there are compared CR 604 and Indometacin, since the latter is, amongst them all, the nearest to the anti-inflammatory activity values of CR 604.

[6] = assay type: in vivo, human; conditions: for gastric disturbances (subjects treated): Indometacin capsules of 25 mg
Protocol: Thus for example comparing CR 604 administered in capsules of 75 mg (6 per day), with Indometacin in capsules of 25 mg (6 per day), i.e. in approximately equimolecular doses on a group of 60 subjects treated (30 with CR 604 and 30 with Indometacin, one notes that (see Table 7): […]

uropepsinogene = assay type: in vivo, human
Protocol: (§1) Thus for example comparing CR 604 administered in capsules of 75 mg (6 per day), with Indometacin in capsules of 25 mg (6 per day), i.e. in approximately equimolecular doses on a group of 60 subjects treated (30 with CR 604 and 30 with Indometacin, one notes that (see Table 7):
Gastric secretion of pepsin is increased by agents which irritate and damage the gastric mucosa.

urinary calcium = assay type: in vivo, human
Protocol: as §1
c. […] Excretion of calcium is related to the destruction of the fibrils of the proteic bone matrix which thus also loses the calcium deposited upon it.
The administration of known anti-inflammatories brings about the lysis of these fibrils with loss of calcium.

Solubility = assay type: physicochemical
[7] = rat, oral 1 hour before carragheen 1%, paws weighed after two hours
[8] = 5 mg/kg/day i.p. + aminoacetonitrile 100 mg/kg/day
[9] = oral, fasted 12 hours, killed 4 hours after administration, read-out: ED50 gastrolesive
[10] = after one week, CR 604 75 mg or Indometacin 25 mg capsules, 6 per day
[11] = after three weeks, CR 604 75 mg or Indometacin 25 mg capsules, 6 per day
[12] = 15 mg/kg/day i.p. + aminoacetonitrile 100 mg/kg/day

With `CCCCC1C(=O)N(c2ccccc2)N(c2ccccc2)C1=O` [Phenylbutazone] the ED50 [1, 7] was 464 µmol/kg and 143 mg/kg, the ED50 ([2]; rat, oral) was 324 µmol/kg and 100 mg/kg and the activity at 10 µg/mL (fibroblast culture) was 58%.
For `COc1ccc2c(c1)c(CC(=O)O)c(C)n2C(=O)c1ccc(Cl)cc1` [Indometacin], the ED50 ([1]; Rattus norvegicus, po) was 17.3 µmol/kg and 6.2 mg/kg, the ED50 ([3]; Rattus norvegicus, po) was 23.5 µmol/kg and 8.41 mg/kg and the ED50 ([2]; Rattus norvegicus, po) was 5.6 µmol/kg and 2 mg/kg. For the same compound, the activity at 2 µg/mL (fibroblast culture) was 78%, the “effect on aminoacetonitrile symptoms, in words” value ([4]; rabbit) was “cannot prevent the occurrence of these conditions” and the “Deformed gait of back legs” value [4, 8] was 1.6. For the same compound, the “Deformed gait of front legs” value [4, 8] was 3.2, the “General Condition of Animal” value [4, 8] was 3.8 and the Loss of fur [4, 8] was 3. The Loss of weight [4, 8] was 3.5, the “Ptosis of auricular pavilion” value [4, 8] was 1.4 and the TD50 at 4 h [5, 9] was 33.5 µmol/kg and 12 mg/kg. For the same compound, the “gastrolesive dose, in words” value ([5]; po) was “very low”, the “gastric disturbances (subjects treated)” value ([6]; after 1 week of treatment, 6 per day) was 46.6% and the “gastric disturbances (subjects treated)” value ([6]; after 3 weeks of treatment, 6 per day) was 53.3%. For the same compound, the Epigastric pain ([6]; after 3 weeks, CR 604 75 mg or Indometacin 25 mg capsules, 6 per day) was 53.3 % of patients in pain, the Epigastric pain [6, 10] was 46.6 % of patients in pain and the Epigastric pain ([6]; before treatment) was 0 % of patients in pain. The Uropepsinogene (uropepsinogene; [10]) was 208.1 equivalent mg of tyrosine per, the Uropepsinogene (uropepsinogene; [11]) was 345.7 equivalent mg of tyrosine per and the Uropepsinogene (uropepsinogene; before treatment) was 164.7 equivalent mg of tyrosine per. The “uropepsinogene in urine, in words” value (uropepsinogene; human) was “increases”, the Urinary calcium (urinary calcium; [10]) was 137 mg/1000 cc of urine and the Urinary calcium (urinary calcium; [11]) was 148 mg/1000 cc of urine. For the same compound, the Urinary calcium (urinary calcium; before treatment) was 126 mg/1000 cc of urine and the “excretion of urinary calcium, in words” value (urinary calcium; human) was “tendency to an increase”.
With `CCCN(CCC)C(=O)C(CCC(=O)OCCCN1CCN(CCOC(=O)Cc2c(C)n(C(=O)c3ccc(Cl)cc3)c3ccc(OC)cc23)CC1)NC(=O)c1ccccc1` (racemic) [CR 604 di-hydrochloride, N'-2-[1-(p-chlorobenzoyl)-5-methoxy-2-methyl-3-indoleacetoxy]ethyl-N-3-(N-benzoyl-N', N'-di-n-propyl-DL-isoglutaminoyl)-oxypropyl-piperazine] the solubility in acetone (Solubility) was “Fairly soluble”, the solubility in ethanol (Solubility) was “Soluble” and the solubility in methanol (Solubility) was “Soluble”. For the same compound, the “solubility in water, in words” value (Solubility; water) was “Hardly soluble” and the solubility (Solubility; water, 25°) was ~5000 µg/mL.
For `CCCN(CCC)C(=O)C(CCC(=O)OCCCN1CCN(CCOC(=O)Cc2c(C)n(C(=O)c3ccc(Cl)cc3)c3ccc(OC)cc23)CC1)NC(=O)c1ccccc1` (racemic) [CR 604 dioxalate, N'-2-[1-(p-chlorobenzoyl)-5-methoxy-2-methyl-3-indoleacetoxy]ethyl-N-3-(N-benzoyl-N', N'-di-n-propyl-DL-isoglutaminoyl)-oxypropyl-piperazine], the solubility in acetone (Solubility) was “slightly soluble”, the solubility in ethanol (Solubility) was “slightly soluble” and the solubility in methanol (Solubility) was “slightly soluble”. For the same compound, the “solubility in water, in words” value (Solubility; water) was “Insoluble”.
With `Cc1cccc(Nc2ccccc2C(=O)O)c1C` [Mephenamic ac.] the ED50 [1, 7] was 439 µmol/kg and 106 mg/kg and the activity at 10 µg/mL (fibroblast culture) was 58%.
For `CC(C)Cc1ccc(C(C)C(=O)O)cc1` (stereo not drawn) [Ibuprofen], the ED50 [1, 7] was 436 µmol/kg and 90 mg/kg.
For `CCCN(CCC)C(=O)C(CCC(=O)OCCCN1CCN(CCCOC(=O)Cc2c(C)n(C(=O)c3ccc(Cl)cc3)c3ccc(OC)cc23)CC1)NC(=O)c1ccccc1` (racemic) [CR 613 (di-maleate), N'-3-[1(p-chlorobenzoyl)-5-methoxy-2-methyl-3-indoleacetoxy]-propyl-N-3-(N-benzoyl-N',N'-di-n-propyl-DL-isoglutaminoyl)-oxypropyl-piperazine], the ED50 [1, 7] was 13.6 µmol/kg and 14.9 mg/kg, the TD50 at 4 h [5, 9] was 277 µmol/kg and the TD50 at 4 h ([5]; po) was 303 mg/kg. For the same compound, the solubility in acetone (Solubility) was “slightly soluble”, the solubility in ethanol (Solubility) was “slightly soluble” and the solubility in methanol (Solubility) was “more soluble”. The “solubility in water, in words” value (Solubility; water) was “Insoluble”.
In the case of `CC(=O)Oc1ccccc1C(=O)O` [Acetylsalicylic ac.], the ED50 ([1]; Rattus norvegicus, po) is reported as 1250 µmol/kg and 226 mg/kg.
In the case of `CCCN(CCC)C(=O)C(CCC(=O)OCCCN1CCN(CCOC(=O)Cc2c(C)n(C(=O)c3ccc(Cl)cc3)c3ccc(OC)cc23)CC1)NC(=O)c1ccccc1` (racemic) [CR 604 (di-maleate), N'-2-[1-(p-chlorobenzoyl)-5-methoxy-2-methyl-3-indoleacetoxy]ethyl-N-3-(N-benzoyl-N', N'-di-n-propyl-DL-isoglutaminoyl)-oxypropyl-piperazine], the ED50 [1, 7] is reported as 11.5 µmol/kg and 12.3 mg/kg, the ED50 ([3]; rat, oral, daily for a week) is reported as 25.6 µmol/kg and 27.6 mg/kg and the ED50 ([2]; rat, oral) is reported as 5.3 µmol/kg and 5.72 mg/kg. For the same compound, the activity at 6 µg/mL (fibroblast culture; 6 μg/ml of culture liquid) was 108%, the “Deformed gait of back legs” value [4, 12] was 0.6 and the “Deformed gait of front legs” value [4, 12] was 0. The “General Condition of Animal” value [4, 12] was 0.2, the Loss of fur [4, 12] was 0 and the Loss of weight [4, 12] was 0. The “Ptosis of auricular pavilion” value [4, 12] was 0.2, the TD50 at 4 h [5, 9] was 330 µmol/kg and the TD50 at 4 h ([5]; po) was 355 mg/kg. The Epigastric pain ([6]; in vivo) was 0 % of patients in pain, the Uropepsinogene (uropepsinogene; in vivo) was 216.3 equivalent mg of tyrosine per and the Urinary calcium (urinary calcium; in vivo) was 132 mg/1000 cc of urine. The solubility in acetone (Solubility) was “slightly soluble”, the solubility in ethanol (Solubility) was “slightly soluble” and the solubility in methanol (Solubility) was “more soluble”. For the same compound, the “solubility in water, in words” value (Solubility; water) was “Insoluble”.
For `CCCN(CCC)C(=O)C(CCC(=O)OCCN1CCN(CCOC(=O)Cc2c(C)n(C(=O)c3ccc(Cl)cc3)c3ccc(OC)cc23)CC1)NC(=O)c1ccccc1` (racemic) [CR 626 (di-maleate), N'-2-[1-(p-chlorobenzoyl)-5-methoxy-2-methyl-3-indoleacetoxy]-ethyl-N-2-(N-benzoyl-N',N'-di-n-propyl-D,L-isoglutaminoyl)-oxyethyl-piperazine], the ED50 [1, 7] was 15 µmol/kg and 16 mg/kg, the TD50 at 4 h [5, 9] was 342 µmol/kg and the TD50 at 4 h ([5]; po) was 363 mg/kg. For the same compound, the solubility in acetone (Solubility) was “slightly soluble”, the solubility in ethanol (Solubility) was “slightly soluble” and the solubility in methanol (Solubility) was “more soluble”. The “solubility in water, in words” value (Solubility; water) was “Insoluble”.
